Where “and” joins values, the source holds several entries; their conditions need not be identical. Identical values can stand only once.
Experiments:
Assay type in all cases: cell-based
Smo::EGFP [1] = molecular target: T1, Smo::EGFP (Homo sapiens, UniProt Q99835); assay: SAG-induced Smo::GFP ciliary accumulation (3T3/Smo::GFP/Ivs::tagRFPT); details: 3T3/Smo::GFP/Ivs::tagRFPT cells; 100 nM SAG; read-out: IC50, inhibition of SAG-induced Smo::GFP ciliary accumulation
T1 construct: expressed in transfected cells
T1 sequence (Q99835 28-787): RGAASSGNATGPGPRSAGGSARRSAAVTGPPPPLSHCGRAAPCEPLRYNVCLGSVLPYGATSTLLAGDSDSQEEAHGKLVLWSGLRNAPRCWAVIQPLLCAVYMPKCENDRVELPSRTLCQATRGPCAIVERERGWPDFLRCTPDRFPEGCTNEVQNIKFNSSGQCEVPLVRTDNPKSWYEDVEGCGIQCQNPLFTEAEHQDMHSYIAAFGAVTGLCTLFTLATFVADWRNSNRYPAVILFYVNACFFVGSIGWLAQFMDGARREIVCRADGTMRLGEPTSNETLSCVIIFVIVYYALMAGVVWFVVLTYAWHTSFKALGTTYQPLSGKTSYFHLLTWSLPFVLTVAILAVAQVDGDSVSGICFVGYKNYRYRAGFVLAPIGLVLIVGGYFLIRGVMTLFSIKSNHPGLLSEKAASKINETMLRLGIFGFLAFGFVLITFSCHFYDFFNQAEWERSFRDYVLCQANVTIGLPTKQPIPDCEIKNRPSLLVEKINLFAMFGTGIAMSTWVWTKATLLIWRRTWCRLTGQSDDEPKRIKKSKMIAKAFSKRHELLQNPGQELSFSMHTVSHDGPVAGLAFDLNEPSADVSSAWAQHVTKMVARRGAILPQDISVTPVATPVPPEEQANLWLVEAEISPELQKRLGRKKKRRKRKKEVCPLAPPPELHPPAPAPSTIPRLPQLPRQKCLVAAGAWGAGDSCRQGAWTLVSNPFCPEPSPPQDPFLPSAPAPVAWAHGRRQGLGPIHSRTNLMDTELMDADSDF
Description: (§1) Cells were cultured and treated in 384-well imaging plate precoated with poly-D-Lysine (Greiner Bio-one), fixed with 4% paraformaldehyde (Electron Microscopy Sciences), and stained with Hoechst (Invitrogen). Images were collected using Opera High Content Screening System (Perkin Elmer). Activityl)ase (IDBS Inc, Emeryvill, Calif.) and Pipeline Pilot (Accelrys, Inc. San Diego, Calif.) were used for high content screening data management and analysis. Acapella 2.0 software (Evotec Technologies/PerkinElmer) was used to perform multi-parametrical high content image quantification. All the images for comparison were scanned with identical microscopic settings and analyzed with the same input parameters.
(§2) Acapella 2.0 software (Evotec Technologies/PerkinElmer) was used to perform multi-parametric high content image quantification. Our image analysis script used Ivs::tagREPT to first determine the location of the PC and then Smo::EGFP to quantify the level of Smo present in the cilium.
The inventors used the spot-finding algorithm in the RFP channel to find Ivs-rich spots. Each non-overlapping spot was based on a maximum 8 pixel-radius (when using a 40× objective) around a central intensity peak of 5 pixels. A distance of at least 10 pixels was required between adjacent spot centers. […] The average, maximum and total RFP intensity of each spot were measured. […]

Hh pathway activity = assay: SAG-induced Gli-luciferase reporter expression (3T3/Shh-LightII); details: Mus musculus, Shh Light II, 3T3/Shh-LightII cells; 100 nM SAG; read-out: IC50, inhibition of SAG-induced expression of Gli-luciferase reporter
Description: Hh activity assays were performed using ShhLightll cells, Smo/Lightll cells, SmoM2/Lightll cells, and suFU−/− mouse embryonic fibroblasts. In the suFU−/− cells, Hh activity was measured after co-transfection with Gli driven firefly luciferase and TK-renilla luciferase reporters^41. Wnt activity was measured in 293 cells co-transfected with Top-flash and TK-renilla luciferase reporters^42. Cells were cultured and treated in 96 well assay plates (Corning) and incubated with Duo-Glo luciferase substrates (Promega) to measure firefly and renilla luciferase activity sequentially using a Top Count NX Microplate Scintillation and Luminescence Counter (Perkin Elmer). The renilla luciferase signal was used to normalize the firefly reporter activity.
ShhLightII cells and SmoM2/LightII cells were cultured and treated in 96 well assay plates (Corning) and incubated with Duo-Glo luciferase substrates (Promega) to sequentially measure firefly and renilla luciferase activity. […] Wnt activity was measured following co-transfection of a Top-flash and renilla luciferase reporter. […] Luciferase signal was read by TopCount NX Microplate Scintillation and Luminescence Counter (Perkin Elmer). Quantitative PCR probes for Ptch1, Gli1, and β-actin were purchased from Applied Biosystems. […]

Smo::EGFP [2] = molecular target: T1, Smo::EGFP; assay: Cyc-induced Smo ciliary accumulation (Smo::EGFP/Ivs::tagRFPT cells); details: 5 μM Cyc
Description: as §1, §2

primary cilium (PC) = assay: Primary cilium markers in the high content assay (Ivs::tagRFPT, Arl13b, acetylated tubulin); details: Ivs::tagRFPT and other PC markers
Text: as §2
The inventors used the spot-finding algorithm in the RFP channel to find Ivs-rich spots. Each non-overlapping spot was based on a maximum 8 pixel-radius (when using a 40× objective) around a central intensity peak of 5 pixels. A distance of at least 10 pixels was required between adjacent spot centers. Spot peaks had to exceed thresholds of relative intensity compared to the remaining body of the spot as well as to the entire image. The average, maximum and total RFP intensity of each spot were measured. The spots with sufficiently high absolute maxima to pass the selected threshold were classified as positive spots. To form candidate cilia, the inventors selected the brightest 15% of the pixels in each positive spot and merged those pixels into objects so that the brightest parts of adjacent spots could form single, larger cilia-shaped objects. To qualify the candidate cilia as true Ivs-positive cilia, the width of the objects created from merging the brightest pixels in each spot had to be at least 2 pixels and the length to half-width ratio had to exceed 3. (i.e. a 3-pixel long by 2-pixel wide cilium was the minimum accepted cilium size and the length had to be at least 1.5 fold of the width). The mean GFP intensity within these Ivs-positive cilia was used to estimate the ciliary level of Smo protein. The inventors subtracted the background of the mean GFP intensity in the 3-pixel wide area around each candidate cilium to avoid some false positives. Those Ivs-positive cilia that exceed the final mean GFP intensity threshold set for each experiment were deemed Smo-positive cilia. […]
Cells were cultured and treated in 384-well imaging plate precoated with poly-D-Lysine (Greiner Bio-one), fixed with 4% paraformaldehyde (Electron Microscopy Sciences), and stained with Hoechst (Invitrogen). […] Acapella 2.0 software (Evotec Technologies/PerkinElmer) was used to perform multi-parametric image quantification. All the comparative images were scanned with identical microscopic setting and analyzed with the same input parameters.

Row | IC50 (Smo::EGFP [1]) | IC50 (Hh pathway activity) [µM] | effect on Cyc induced Smo cilial accumulation (Smo::EGFP [2]) | SMILES | effect on primary cilium markers / ciliary structure (primary cilium (PC))
1 | ~2 µM and 2 µM | ~2 | effectively compete with Cyc | CCN(CC)c1ccc(/C=N/NC(=O)c2ccc(O)cc2)cc1 [DY131] | 
2 |  |  |  | CC1(C)O[C@@H]2C[C@H]3[C@@H]4C[C@H](F)C5=CC(=O)C=C[C@]5(C)[C@@]4(F)[C@@H](O)C[C@]3(C)[C@]2(C(=O)CO)O1 [FA, fluocinolone acetonide] | unaltered
